The source of these data is publication PMC9564337, “Development of a Neurotensin-Derived ^68Ga-Labeled PET Ligand with High In Vivo Stability for Imaging of NTS1 Receptor-Expressing Tumors” (Cancers, 2022).

Data set [1] addresses T1, hNTS1R (Homo sapiens, UniProt P30989).
T1 construct: intact HT-29 colon carcinoma cells expressing the hNTS1R; host or cells: HT-29 human colon carcinoma cells
Nature of the data set: radioligand competition binding with [3H]UR-MK300 at intact HT-29 cells. The conditions noted are these: for pKi ± SD NTS1R / Ki: [3H]UR-MK300 c = 1 nM, HT-29 cells, 23 °C; for Ki: read-out: Ki [nM] NTS1R (converted). From the text: Specific binding data (obtained by subtracting unspecific binding from total binding) were normalized (100% = specifically bound radioligand in the absence of competitor) and plotted over log(concentration of competitor) followed by a four-parameter logistic fit (SigmaPlot 12.5, Systat Software, San José, CA, USA) (note: in the case of 40, the lower curve plateau of the sigmoidal fit was constrained to >0). […] The Ki values from individual experiments were transformed to pKi values, followed by the calculation of mean pKi values ± SD.

Data set [2] deals with hNTS2R (Homo sapiens, UniProt O95665). The data set is described as follows: radioligand competition binding with [3H]UR-MK300 at intact HEK293T-hNTS2R cells. Conditions: [3H]UR-MK300 c = 10 nM. Here is the method: Two days prior to the experiment, white 96-well plates with clear bottoms (Costar, catalog no. 3610) were treated with poly-D-lysine hydrobromide (Sigma-Aldrich) for 10 min. The wells were washed with H2O and the plates were dried on air at rt overnight. […] After removal of the glutaraldehyde solution, the wells were washed twelve times with H2O and two times with culture medium (150–300 µL). […] On the day of the experiment, the culture medium was carefully removed using a multi-channel pipette (Transferpette S-12, Brand, Wertheim, Germany) and the cells were washed once with Dulbecco’s phosphate-buffered saline (D-PBS) containing Ca^2+ and Mg^2+ (1.8 mM CaCl2, 2.68 mM KCl, 1.47 mM KH2PO4, 3.98 mM MgSO4, 136.9 mM NaCl and 8.06 mM Na2HPO4) (200 μL, rt) followed by the careful pre-filling of the wells with 180 µL (total binding) or 160 µL (unspecific and competition binding) of D-PBS, supplemented with 1% BSA and 100 μg/mL bacitracin (Serva, Heidelberg, Germany) (in the following referred to as binding buffer). To determine total binding, 20 µL of a solution of the radioligand in binding buffer (10-fold concentrated compared to the final concentration) were added. […] To determine the displacing effect of a compound of interest, 20 µL of a solution of the respective compound in binding buffer (10-fold concentrated) and 20 µL of a 10-fold concentrated solution of the radioligand in binding buffer were added. During the incubation period of 2 h at 23 °C, the plates were gently shaken. […] The plates were sealed with a transparent sealing tape (permanent seal for microplates, PerkinElmer, product no. 1450–461) and turned upside down several times to achieve complete mixing. Prior to the measurement of the radioactivity with a MicroBeta2 plate counter (PerkinElmer), the plates were kept in the dark for at least 1 h. All experiments were performed in triplicate.

Data set [3] can be described thus: in vitro. The data set is classed as in vitro ADME. Conditions: human; for remaining at 1 h, 100 µM / remaining at 6 h, 100 µM / remaining at 24 h, 100 µM / remaining at 48 h, 100 µM: plasma; for remaining at 1 h, 100 µM: pH 7.4, % Intact Peptide in Plasma after 1 h; for remaining at 6 h, 100 µM: pH 7.4, % Intact Peptide in Plasma after 6 h; for remaining at 24 h, 100 µM: pH 7.4, % Intact Peptide in Plasma after 24 h; for remaining at 48 h, 100 µM: pH 7.4, % Intact Peptide in Plasma after 48 h. The protocol: The concentration of the peptides in plasma/PBS (1:2 v/v) was 80 and 4 μM (recovery determination) or 100 μM (stability tests). Data analysis was based on UV detection at 220 nm (8, 9, 11, 12, 14-18, 21-23, 38-49, and 54-57) or fluorescence detection at 275/305 nm (19 and 20). Reference samples, representing 100% recovery, were prepared in duplicate (8, 9, 11, 14-16, and 19-21) or quadruplicate (12, 17, 18, 22, 23, 38-49, and 54-57). Recovery ratios were obtained by dividing the recovery of the peptide by the recovery of IS for each individual sample (n = 3-5). The obtained recoveries and the recovery ratios are summarized in Table S2, Supplementary Materials. […] Instead, the recovery ratios determined for the previously reported, structurally closely related peptide […] [40] were used for calculating the amount of remaining intact peptide in plasma.

The conditions of data set [4]: cited from earlier work.
Where [5] appears, read: read-out: Ki [nM] NTS2R (converted).
Setting [6] is: read-out: pKi ± SD NTS2R (converted).

Where two headings read alike, the source gives them in different places. Marks after values point to notes of the source that are not given here.

T1 sequence (P30989 whole entry): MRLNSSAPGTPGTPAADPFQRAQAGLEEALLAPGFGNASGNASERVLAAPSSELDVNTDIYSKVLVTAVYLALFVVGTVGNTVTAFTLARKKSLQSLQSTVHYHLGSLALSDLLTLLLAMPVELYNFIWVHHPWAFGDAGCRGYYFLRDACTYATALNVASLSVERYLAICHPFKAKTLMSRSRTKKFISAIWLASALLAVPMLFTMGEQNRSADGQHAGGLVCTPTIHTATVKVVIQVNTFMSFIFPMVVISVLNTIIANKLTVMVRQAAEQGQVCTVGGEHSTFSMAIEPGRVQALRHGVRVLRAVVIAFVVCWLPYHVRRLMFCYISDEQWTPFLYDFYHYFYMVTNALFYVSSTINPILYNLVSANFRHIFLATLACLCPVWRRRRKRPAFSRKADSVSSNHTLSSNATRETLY
hNTS2R, sequence (O95665 whole entry): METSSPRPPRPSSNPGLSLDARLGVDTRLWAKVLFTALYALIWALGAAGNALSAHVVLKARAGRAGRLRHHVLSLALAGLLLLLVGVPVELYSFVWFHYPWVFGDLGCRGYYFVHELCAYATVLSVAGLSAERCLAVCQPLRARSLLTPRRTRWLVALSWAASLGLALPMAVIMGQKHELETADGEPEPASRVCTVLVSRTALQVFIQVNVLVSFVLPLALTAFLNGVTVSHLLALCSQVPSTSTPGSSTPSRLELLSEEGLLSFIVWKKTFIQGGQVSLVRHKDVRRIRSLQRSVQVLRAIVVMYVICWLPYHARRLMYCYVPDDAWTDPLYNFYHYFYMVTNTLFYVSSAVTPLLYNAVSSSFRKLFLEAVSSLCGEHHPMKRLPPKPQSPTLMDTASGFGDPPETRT

Regarding `CC(C)C[C@H](NC(=O)[C@@H](NC(=O)[C@H](Cc1ccc(O)cc1)NC(=O)[C@@H]1CCCN1C(=O)[C@H](CCCNC(N)=NC(=O)NCCCCNC(=O)CN1CCN(CC(=O)O)CCN(CC(=O)O)CCN(CC(=O)O)CC1)N(C)C(=O)[C@@H](N)CCCNC(=N)N)C(C)(C)C)C(=O)O` [Compound 22], in data set [1], the “NTS1R Selectivity (Ratio Ki (NTS2R)/Ki (NTS1R))” value was determined as 4.4, the “pKi ± SD NTS1R” value is on record as 7.70 ± 0.07 and the Ki is 20 nM. Moreover, the “pKi ± SD NTS2R” value in data set [2] worked out at 7.08 ± 0.16. In addition, the Ki in data set [2] (setting [5]) is 88 nM. Besides, the “% Intact Peptide in Plasma after 1 h” value in data set [3] (1 h, 100 µM, pH 7.4) is greater than 99%. Besides, the “% Intact Peptide in Plasma after 6 h” value in data set [3] (6 h, 100 µM, pH 7.4) was 87 ± 2%. Besides, the “% Intact Peptide in Plasma after 24 h” value in data set [3] (100 µM, pH 7.4) came to 30 ± 1%. For the same molecule, the “% Intact Peptide in Plasma after 48 h” value in data set [3] (48 h, 100 µM, pH 7.4) was determined as 7.7 ± 1.0%.
As a reminder, the fraction remaining is what is left of the initial amount, in per cent. Low readings indicate more turnover, high ones less turnover. `CC(C)C[C@H](NC(=O)[C@@H](NC(=O)[C@H](Cc1ccc(O)cc1)NC(=O)[C@@H]1CCCN1C(=O)[C@H](CCCNC(=N)NC(=O)NCCCCNC(=O)CN1CCN(CC(=O)O)CCN(CC(=O)O)CCN(CC(=O)O)CC1)N(C)C(=O)[C@@H](N)CCCNC(=N)N)C(C)(C)C)C(=O)O` [Compound 17]: in data set [1], the “NTS1R Selectivity (Ratio Ki (NTS2R)/Ki (NTS1R))” value turned out to be 6.4 and the Ki is 36 nM. Also, the Ki in data set [2] (setting [5]) was 230 nM. The Ki in data set [2] (setting [6]) is 224 nM. In addition, the “% Intact Peptide in Plasma after 24 h” value in data set [3] (100 µM, pH 7.4) stood at 98 ± 1%. Besides, in data set [3], the fraction remaining at 1 h, 100 µM amounted to 97 ± 1% and the amount remaining at 6 h, 100 µM is 99 ± 1%.
Turning to `CN[C@@H](CCCNC(=N)N)C(=O)N[C@@H](CCCNC(=N)NC(=O)NCCCCN)C(=O)N1CCC[C@H]1C(=O)N[C@@H](Cc1ccc(O)cc1)C(=O)N[C@H](C(=O)N[C@@H](CC(C)C)C(=O)O)C(C)(C)C` [Compound 8], in data set [1], the “NTS1R Selectivity (Ratio Ki (NTS2R)/Ki (NTS1R))” value was determined as 4.2 and the Ki was 5.3 nM. In addition, in data set [2] (setting [5]), the Ki was 22 nM. The Ki in data set [2] (setting [6]) was 20.9 nM. In data set [3], this molecule showed an amount remaining at 1 h, 100 µM greater than 99%; an amount remaining at 6 h, 100 µM greater than 99%; an amount remaining at 24 h, 100 µM greater than 99%; a share remaining at 48 h, 100 µM greater than 99%.
For the molecule `CC[C@H](C)[C@H](NC(=O)[C@H](Cc1ccc(O)cc1)NC(=O)[C@@H]1CCCN1C(=O)[C@H](CCCNC(=N)N)NC(=O)[C@@H](N)CCCNC(=N)N)C(=O)N[C@@H](CC(C)C)C(=O)O` [Compound 1, Arg^8-Arg^9-Pro^10-Tyr^11-Ile^12-Leu^13], the plasma half-life result in data set [4] is given as “only a few minutes”. Moreover, the “% Intact Peptide in Plasma after 10 min” value in data set [4] (human plasma, 37 °C, 10 min, ref Schindler et al. [40]) is 23 ^d %. In data set [4] (human plasma, 37 °C, 1 h, ref Schindler et al. [40]), the “% Intact Peptide in Plasma after 1 h” value is listed as <1 ^d %. In addition, the “% Intact Peptide in Plasma after 24 h” value in data set [4] (human plasma, 37 °C, 24 h, ref Schindler et al. [40]) is <1 ^d %. Besides, the “% Intact Peptide in Plasma after 48 h” value in data set [4] (human plasma, 37 °C, 48 h, ref Schindler et al. [40]) is <1 ^d %.
In the case of `CN[C@@H](CCCNC(=N)N)C(=O)N[C@@H](CCCNC(N)=NC(=O)NCCCCNC(=O)CN1CCN(CC(=O)O)CCN(CC(=O)O)CCN(CC(=O)O)CC1)C(=O)N1CCC[C@H]1C(=O)N[C@@H](Cc1ccc(O)cc1)C(=O)N[C@H](C(=O)N[C@@H](CC(C)C)C(=O)O)C(C)(C)C` [Compound 19], in data set [1], the “NTS1R Selectivity (Ratio Ki (NTS2R)/Ki (NTS1R))” value stood at 4.6, the “pKi ± SD NTS1R” value came out at 7.80 ± 0.03 and the Ki is 16 nM. In addition, the “pKi ± SD NTS2R” value in data set [2] was determined as 7.16 ± 0.18. Besides, the Ki in data set [2] (setting [5]) was 73 nM. In data set [3], the share remaining at 1 h, 100 µM was greater than 99%; the fraction remaining at 6 h, 100 µM was greater than 99%; the share remaining at 24 h, 100 µM was found to be 36 ± 1%; the amount remaining at 48 h, 100 µM was 4.2 ± 0.6%.
